The values that follow come from patent US20030148954A1, “Agents and methods for modulating activator protein-1-mediated cellular processes” (Wisconsin Alumni Research Foundation, priority 2001, published 2003).

Assay [1] concerns c-Jun. As to the kind of experiment: Western blot of c-Jun protein and c-Jun phosphorylation. Type of assay: cell-based, human. On the procedure:
Stable Transfection—K562 cells were stably transfected by electroporation with a Bio-Rad Gene pulser electroporator. Cells (5×10^6) were washed with ice-cold PBS, resuspended in 0.5 ml of ice-cold PBS, mixed with 5 μg linearized plasmid DNA, and subjected to electroporation (960 microfarad; 220 V) in a 0.4 cm-wide electroporation cuvette (BTX). pBabe and pNIC-1 were linearized with NotI. Cells were then added to 20 ml of complete IMEM, grown for 48 h, and diluted in complete IMEM containing 1.5 μg/ml puromycin (pools of K562-Babe and K562-NIC-1 cells). Stably transfected cells were analyzed for erythroid differentiation as soon as the pools were generated by benzidine staining to reduce the probability of phenotypic changes that may result from prolonged growth.
Cells were washed once with ice-cold PBS, cell pellets were resuspended in 30 μl ice-cold PBS and were immediately boiled in 70 μl SDS sample buffer for 10 min. Proteins (10 μl) were resolved by SDS-PAGE on a 10% acrylamide gel and transferred to Immobilon P membrane (Millipore). After blocking membranes in 5% nonfat dry milk in TBST (10 mM Tris pH 8.0, 150 mM NaCl, 0.3% Tween-20), membranes were incubated with primary antibody (diluted 1:1000 in dry milk/TBST). […] Antigen-antibody complexes were detected with ECL Plus™ (Amersham Life Science) according to manufacturer's instructions.
Background: Immunoblotting shows a protein as a band on a membrane.

The test system of assay [2] is AP-1. As to the kind of experiment: EMSA of AP-1 DNA binding activity in nuclear extracts. Details: species or system human. To be noted: 5 nM TPA 2 hours, nuclear extracts. On the procedure: K562-Babe and K562-NIC-1 cells were harvested by centrifugation for 10 min at 150×g. Cells were washed once with ice-cold PBS and resuspended in 1.5 volumes of nuclei lysis buffer (10 mM Tris-HCl, pH 7.5, 10 mM NaCl, 3 mM MgCl2, and 0.2% Nonidet P-40) on ice for 3 min. Nuclei were collected by centrifugation for 5 min at 600×g. Nuclei were washed by gentle resuspension in 1.5 volumes of nuclei wash buffer (10 mM Tris-HCl, pH 7.5, 10 mM NaCl, and 3 mM MgCl2) and then collected by centrifugation for 4 min at 600×g. […] Nuclei were extracted for 45 min at 4° C. with constant mixing. The suspension was then centrifuged for 30 min at 150,000×g. Aliquots of the supernatant were frozen on dry ice and stored at -80° C. The protein concentration as measured by the Bradford assay, with y-globulin as a standard ranged from 4 to 10 mg/ml. DTT (5 mM), phenylmethanesulfonyl fluoride (0.5 mM), leupeptin (20 μg/ml), β-glycerophosphate (800 μM), sodium vanadate (1 mM), and sodium molybdate (50 μM) were included in all buffers. Electrophoretic Mobility Shift Assay-EMSA assays were done as described previously (54). AP-1 DNA binding activity was measured by EMSA with a double-stranded end-labeled oligonucleotide [NT] containing a high affinity AP-1 binding site. […] DNA binding activity was quantitated by PhosphorImager analysis with ImageQuant software (Molecular Dynamics).
Background: In EMSA bound probe runs differently from free probe, usually more slowly.

The test system of assay [3] is CSL (CBF1). In words: CSL-dependent (p4×CBF1luc) luciferase reporter, transient transfection of K562 cells. The format is cell-based, human. From the text:
Plasmids—The pBabe-NIC-1 (pNIC-1) expression vector encoding constitutively active Notch-1 (NIC-1) was described previously (36,37,51). This vector was derived from the pBabe-puro retroviral vector and includes a cDNA sequence encoding amino acids 1759-2556 of human Notch-1 with a Myc tag fused to its carboxyl terminus. Human NIC-1 deletion mutants were generated by PCR using a full-length human Notch-1 expression vector as the template. The Notch-dependent reporter plasmid containing four CBF1 binding sites and an simian virus 40 promoter fused to luciferase (p4×CBF1luc) was described previously (52). The AP-1 reporter plasmid (p1×AP1luc) containing a collagenase promoter fragment (−73/+67) with a single AP-1 binding site in the luciferase reporter vector pGL2-basic (Promega) was described previously (53). The NF-κB reporter plasmid (p3×κBluc) containing three NF-κB binding sites and a minimal promoter fused to luciferase was a kind gift of Dr. Shigeki Miyamoto (University of Wisconsin Medical School). […]
For each transfection, cells were incubated for 26 h after transfection and then treated with TPA (final concentration: 5 nM) or the vehicle (DMSO). […] Luciferase activity was normalized by the protein content of the lysates, determined by Bradford assay using γ-globulin as a standard.
Background: A reporter such as luciferase makes a cellular process visible.

Take “NIC-1: constitutively active Notch-1 intracellular domain, amino acids 1759-2556 of human Notch-1 with carboxyl-terminal Myc tag, expressed from pBabe-NIC-1”: the “effect on time-dependent induction of phosphorylation of c-Jun (serine 73) and JunD” value in assay [1] (5 nM TPA for 0, 5, 10, or 20 min) is “no effect”. Further, the “effect on c-Jun protein levels” value in assay [1] (K562-NIC-1 versus K562-Babe) is “did not affect”. Also, the “AP-1 complexes formed with extracts from K562-NIC-1 versus K562-Babe cells” value in assay [2] is “no apparent qualitative or quantitative differences”. The “activation of CSL-dependent reporter activity” value in assay [3] is listed as “strongly activated”.
